Data published in the CheMixHub ionic liquid set.
± gives the uncertainty stated by the source.

Assay: xn = mol fraction of the nth substance listed
Conditions: 101 kPa

CCCCCCCCCCCCCCCC[n+]1ccccc1.O=C([O-])c1ccccc1O + CC(C)[C@H](N)C(=O)O + O
electrical conductivity [S/m]
Conditions	293.15 K	298.15 K	303.15 K	308.15 K	313.15 K
x2 = 0.0009002, x1 = 3.6e-07	0.000683 ± 4.1e-05	0.000771 ± 4.6e-05	0.000864 ± 5.2e-05	0.000967 ± 5.8e-05	0.00108 ± 6.5e-05
x2 = 0.0009002, x1 = 7.2e-07	0.000869 ± 5.2e-05	0.000983 ± 5.9e-05	0.0011 ± 6.6e-05	0.00123 ± 7.4e-05	0.00136 ± 8.2e-05
x2 = 0.0009002, x1 = 1.27e-06	0.00105 ± 6.3e-05	0.00118 ± 7.1e-05	0.00133 ± 8e-05	0.00148 ± 8.9e-05	0.00164 ± 9.9e-05
x2 = 0.0009002, x1 = 1.63e-06	0.00122 ± 7.3e-05	0.00138 ± 8.3e-05	0.00155 ± 9.3e-05	0.00173 ± 0.0001	0.00192 ± 0.00012
x2 = 0.0009002, x1 = 1.99e-06	0.00138 ± 8.3e-05	0.00156 ± 9.4e-05	0.00175 ± 0.00011	0.00194 ± 0.00012	0.00215 ± 0.00013
x2 = 0.0009002, x1 = 2.35e-06	0.00152 ± 9.1e-05	0.00174 ± 0.00011	0.00196 ± 0.00012	0.00219 ± 0.00013	0.00243 ± 0.00015
x2 = 0.0009002, x1 = 2.9e-06	0.00168 ± 0.0001	0.00193 ± 0.00012	0.00219 ± 0.00013	0.00247 ± 0.00015	0.00274 ± 0.00016
x2 = 0.0009002, x1 = 3.44e-06	0.00182 ± 0.00011	0.00207 ± 0.00012	0.00235 ± 0.00014	0.00266 ± 0.00016	0.003 ± 0.00018
x2 = 0.0009002, x1 = 3.98e-06	0.00195 ± 0.00012	0.00223 ± 0.00013	0.00254 ± 0.00015	0.00287 ± 0.00017	0.00322 ± 0.00019
x2 = 0.0009002, x1 = 4.53e-06	0.00208 ± 0.00013	0.00236 ± 0.00014	0.00269 ± 0.00016	0.00303 ± 0.00018	0.00342 ± 0.0002
x2 = 0.0009002, x1 = 4.89e-06	–	–	–	0.0032 ± 0.00019	0.00359 ± 0.00021
x2 = 0.0009002, x1 = 5.07e-06	0.00218 ± 0.00013	0.00249 ± 0.00015	0.00283 ± 0.00017	–	–
x2 = 0.0009002, x1 = 5.43e-06	0.00228 ± 0.00014	0.0026 ± 0.00016	0.00295 ± 0.00018	0.00334 ± 0.0002	0.00376 ± 0.00023
x2 = 0.0009002, x1 = 5.79e-06	0.00238 ± 0.00014	0.00271 ± 0.00016	0.00307 ± 0.00018	0.00346 ± 0.00021	0.00389 ± 0.00023
x2 = 0.0009002, x1 = 6.16e-06	0.00246 ± 0.00015	0.0028 ± 0.00017	0.00317 ± 0.00019	0.00358 ± 0.00022	0.00403 ± 0.00024
x2 = 0.001799, x1 = 1.8e-07	0.00108 ± 6.5e-05	0.00122 ± 7.3e-05	0.00138 ± 8.3e-05	0.00154 ± 9.3e-05	0.00173 ± 0.0001
x2 = 0.001799, x1 = 3.6e-07	0.00119 ± 7.1e-05	0.00135 ± 8.1e-05	0.00152 ± 9.1e-05	0.00169 ± 0.0001	0.00189 ± 0.00011
x2 = 0.001799, x1 = 7.3e-07	0.00132 ± 7.9e-05	0.00149 ± 9e-05	0.00168 ± 0.0001	0.00188 ± 0.00011	0.00209 ± 0.00013
x2 = 0.001799, x1 = 1.09e-06	0.00145 ± 8.7e-05	0.00164 ± 9.9e-05	0.00185 ± 0.00011	0.00206 ± 0.00012	0.0023 ± 0.00014
x2 = 0.001799, x1 = 1.27e-06	0.00157 ± 9.4e-05	0.00178 ± 0.00011	0.00199 ± 0.00012	0.00222 ± 0.00013	0.00248 ± 0.00015
x2 = 0.001799, x1 = 1.46e-06	0.00171 ± 0.0001	0.00193 ± 0.00012	0.00216 ± 0.00013	0.00242 ± 0.00015	0.00269 ± 0.00016
x2 = 0.001799, x1 = 1.64e-06	0.00177 ± 0.00011	0.002 ± 0.00012	0.00225 ± 0.00014	0.00252 ± 0.00015	0.0028 ± 0.00017
x2 = 0.001799, x1 = 1.82e-06	0.00183 ± 0.00011	0.00207 ± 0.00012	0.00233 ± 0.00014	0.0026 ± 0.00016	0.0029 ± 0.00017
x2 = 0.001799, x1 = 2e-06	0.00188 ± 0.00011	0.00213 ± 0.00013	0.0024 ± 0.00014	0.00268 ± 0.00016	0.00299 ± 0.00018
x2 = 0.001799, x1 = 2.18e-06	0.00196 ± 0.00012	0.00224 ± 0.00013	0.00252 ± 0.00015	0.00282 ± 0.00017	0.00314 ± 0.00019
x2 = 0.001799, x1 = 2.37e-06	–	0.00234 ± 0.00014	0.00267 ± 0.00016	0.00298 ± 0.00018	0.00332 ± 0.0002
x2 = 0.001799, x1 = 2.55e-06	0.00205 ± 0.00012	–	–	–	–
x2 = 0.001799, x1 = 2.73e-06	0.00216 ± 0.00013	0.00248 ± 0.00015	–	0.00317 ± 0.00019	0.00355 ± 0.00021
x2 = 0.001799, x1 = 3.09e-06	0.00226 ± 0.00014	0.00258 ± 0.00015	0.00292 ± 0.00018	0.0033 ± 0.0002	0.0037 ± 0.00022
x2 = 0.001799, x1 = 3.46e-06	0.00234 ± 0.00014	0.00268 ± 0.00016	0.00304 ± 0.00018	0.00342 ± 0.00021	0.00384 ± 0.00023

CCCC[n+]1ccn(C)c1.COP(=O)([O-])OC + CCC(=O)O.CCC(=O)[O-].CC[NH+](CC)CCO
x2 = 0
Conditions	viscosity [mPa·s]
283.15 K	2142 ± 110
328.15 K	100.9 ± 1.5
343.15 K	52.35 ± 0.65
373.15 K	19.25 ± 0.24

CCCCCCCCn1cc[n+](C)c1.F[B-](F)(F)F + CCC(C)=O
298.15 K
Conditions	viscosity [mPa·s]
x2 = 0.101	188 ± 11
x2 = 0.4505	24.78 ± 0.32
x2 = 0.7023	5.04 ± 0.08
x2 = 0.8033	2.29 ± 0.04
x2 = 0.899	1.03 ± 0.02
